Earlier results as cited in publication PMC7984292 (Chemmedchem, 2020).
Values joined by “and” are separate entries in the source; they are usually repeats but may differ in a detail not shown here. Equal entries are not always repeated.

Experiments:
hDAT = hDAT (Homo sapiens, UniProt Q01959); settings: read-out: IC50 hDAT; oxo isomers; taken from reference
[1] = not given; remark: listed apart in the source

hDAT, sequence (Q01959 whole entry): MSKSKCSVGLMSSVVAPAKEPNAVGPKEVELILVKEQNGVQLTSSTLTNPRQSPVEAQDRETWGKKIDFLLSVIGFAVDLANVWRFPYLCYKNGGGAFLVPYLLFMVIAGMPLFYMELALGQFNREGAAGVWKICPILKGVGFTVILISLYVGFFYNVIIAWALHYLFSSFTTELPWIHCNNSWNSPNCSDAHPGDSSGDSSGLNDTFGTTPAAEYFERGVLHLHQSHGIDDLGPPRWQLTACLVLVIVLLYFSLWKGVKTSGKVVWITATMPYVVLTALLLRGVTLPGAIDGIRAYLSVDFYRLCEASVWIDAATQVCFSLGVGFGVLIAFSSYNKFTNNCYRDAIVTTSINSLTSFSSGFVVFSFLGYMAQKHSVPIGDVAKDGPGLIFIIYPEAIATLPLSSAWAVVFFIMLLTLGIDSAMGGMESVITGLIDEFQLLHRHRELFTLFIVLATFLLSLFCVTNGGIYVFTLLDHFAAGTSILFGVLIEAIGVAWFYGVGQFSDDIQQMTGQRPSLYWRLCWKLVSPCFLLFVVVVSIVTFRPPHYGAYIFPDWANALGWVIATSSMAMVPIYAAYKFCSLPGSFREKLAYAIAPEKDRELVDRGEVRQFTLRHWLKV

O=C(O)CN(CCN(CC(=O)O)Cc1ccccc1O)Cc1ccccc1O [HBED]
log K GaL (stability constant for the Ga3+ complex): 38.51

CN1[C@H]2CC[C@@H]1[C@@H](CN(CC[S-])CC[N-]CC[S-])[C@@H](c1ccc(Cl)cc1)C2.[O]=[99Tc+4] [TRODAT‐1 6]
IC50 (hDAT): 0.00842 µM and 0.0139 µM | log P ([1]; value in parentheses = log P, literature value): (0.29±0.04) ^[29]

COC(=O)[C@H]1[C@@H](OC(=O)c2ccccc2)C[C@@H]2CC[C@H]1N2C [cocaine 1, cocaine]
log D 7.4 ([1]; pH 7.4): 1.31±0.01 ^[22]
